Measurements: patent US5317095A, “Alpha-D-glycosyl kasugamycin, its preparation, and antibacterial agent containing the same” (Hayashibara Biochemical Laboratories, Inc., priority 1992, dated 1994)
Where two headings read alike, the source gives them in different places.

What was measured:
[1] = system: α-glucosidase derived from pig liver; assay: Hydrolysis by α-glucosidase derived from pig liver; type: in vitro ADME; details: pig liver enzyme; forms 1 mole of D-glucose per 1 mole of kasugamycin
[2] = pH Stability test of α-D-glucosyl kasugamycin; type: physicochemical; details: 120° C. for 1 hour; for Residue (%) / remaining at 1 h: mean, n = 5; for remaining at 1 h: buffer, read-out: Residue (%)
Method: Fifty μl of 2.56 w/v % aqueous solution of α-D-glucosyl kasugamycin (purity: about 80%), which was prepared according to the method described in Example 3 was mixed with 450 μl of a buffer adjusted to pH 2.0, 4.0, 6.0, 8.0 or 10.0. The mixture was kept at 120° C. for 1 hour in a well-closed container. As the buffer was used 1M HCl- Sodium acetate buffer (pH 2.0 or pH 4.0), 1M acetic acid buffer (pH 6.0), 1M Tris-HCl buffer (pH 8.0) or 1M NH4 OH- NH4 Cl buffer (pH 10.0).
Each of thus obtained mixtures was cooled with a running water. Then, the mixture was diluted 5 times with 0.5M Na3 PO4 -H3 PO4 (pH 6.0). Successively, the diluted mixture subjected to HPLC under the following conditions.
As a comparison was used a sample obtained by diluting 5 times a mixture of 50 μl of 2.56 w/v % aqueous solution of α-D-glucosyl kasugamycin and 450 μl of deionized water with 0.5M Na3 PO4 -H3 PO4 (pH 6.0).
Residue was calculated on the basis of a ratio of the peak area of α-D-glucosyl kasugamycin in each treated mixture to that in the sample as a comparison.
Also, 1.0 w/v % aquous solution of kasugamycin purchased from Hokko Kagaku Kogyo Kabushiki Kaisha was treated in the same manner as described in the case of α-D-glucosyl kasugamycin. Residue in each pH condition was calculated.
Column: ODS-M (commercially avairable from Shimazu Techno Research Co., Ltd.)
Eluate: Acetonitrile/Water*=8/92 (v/v) *0.2M CH3 (CH2)5 SO3 Na (pH was not adjusted) 0.005M Na3 PO4 -H3 PO4 (pH 6.0)

[3] = system: α-glucosidase derived from microorganisms of the genus Mucor; assay: Hydrolysis by α-glucosidase derived from microorganisms of the genus Mucor; type: in vitro ADME; details: enzyme from genus Mucor; forms 1 mole of D-glucose per 1 mole of kasugamycin
Solubility in solvents = type: physicochemical
[4] = system: α-glucosidase derived from seeds of rice plant; assay: Hydrolysis by α-glucosidase derived from seeds of rice plant; type: in vitro ADME; details: enzyme from seeds of rice plant; forms 1 mole of D-glucose per 1 mole of kasugamycin
[5] = Stability in aqueous solution; type: physicochemical; details: pH in the range from 3.0 to 7.0
dd mice = assay: Acute toxicity; type: in vivo; details: peritoneally administered; 7 week-old dd mice; highest dose 3,000 mg per kg body weight
Source text: The α-D-glucosyl kasugamycin was peritoneally administered to 7 week-old dd mice for acute toxicity test.

## α-D-glucosyl kasugamycin
[1]
  Hydrolysis by α-glucosidase: readily hydrolyed
[2]; pH 2.0
  Residue (%): 76.2%
[2]; pH 4.0
  Residue (%): 75.2%
[2]; pH 6.0
  Residue (%): 26.9%
[2]; pH 8.0, 17.6/9.5
  times stabler than kasugamycin: approximately 1.85 times
[2]; pH 8.0
  Residue (%): 17.6%
[2]; pH 10.0
  Residue (%): trace
[3]
  Hydrolysis by α-glucosidase: readily hydrolyed
Solubility in solvents; 0.1N hydrochloric acid
  Solubility in 0.1N hydrochloric acid: readily soluble
Solubility in solvents; 0.1N sodium hydroxide
  Solubility in 0.1N sodium hydroxide: readily soluble
Solubility in solvents; acetic acid
  Solubility in acetic acid: readily soluble
Solubility in solvents; chloroform
  Solubility in chloroform: insoluble
Solubility in solvents; ethanol
  Solubility in ethanol: substantially insoluble
Solubility in solvents; ethyl acetate
  Solubility in ethyl acetate: insoluble
Solubility in solvents; methanol
  Solubility in methanol: substantially insoluble
Solubility in solvents; water
  Solubility in water: readily soluble
Solubility in solvents; water, room temperature, vs kasugamycin
  solubility in water relative to that of kasugamycin: not less than fivefold
[4]
  Hydrolysis by α-glucosidase: readily hydrolyed
[5]
  Stability in an aqueous solution: excellently stable
Dd mice
  deaths (acute toxicity): not observed any deaths

## C[C@H]1O[C@H](O[C@H]2[C@H](O)[C@@H](O)[C@@H](O)[C@H](O)[C@@H]2O)[C@@H](N)C[C@@H]1NC(=N)C(=O)O [Kasugamycin, kasugamycin]
[2]; pH 2.0
  remaining at 1 h: 76%
[2]; pH 4.0
  remaining at 1 h: 72.1%
[2]; pH 6.0
  remaining at 1 h: 26.8%
[2]; pH 8.0
  remaining at 1 h: 9.5%
[2]; pH 10.0
  Residue (%): trace
